Assay results published in PubChem BioAssay AID2305 (GlaxoSmithKline (GSK), 2010).

What follows are compounds tested on P. falciparum 3D7 growth, pLDH absorbance (assay: P. falciparum 3D7 growth inhibition, dose response, strain 3D7 (AID 2305)).

Row | SMILES | IC50 [nM]
1 | COc1ccccc1C1CCN(C2CCC(NC(=O)/C=C/c3ccc4c(c3)OC(F)(F)O4)CC2)CC1 (centres undefined) | 840
2 | C=CCOc1ccc(C2C(C(=O)OC)=C(C)NC3=C2C(=O)c2ccccc23)cc1OC (centres undefined) | 880
3 | Cc1ccccc1CNc1ccc2nc(N)nc(N)c2c1 | 170
4 | Cc1ccc(-c2nc(NC(=O)Nc3ccc(C(F)(F)F)cc3)sc2C)cc1Cl | 660
5 | Cc1ccc(O)c(-c2cc(C(=O)Nc3ccc(S(=O)(=O)N4CCCCCC4)cc3)[nH]n2)c1 | 710
6 | NC(=O)CN1CC=C(c2c[nH]c3ccc(Br)cc23)CC1 | 1100
7 | O=C(Nc1ccc(N2CCN(Cc3cccc(F)c3)CC2)cc1)c1cccs1 | 680
8 | N#Cc1ccc(N[C@@H](CC2CCCCC2)C(=O)NCc2cc(F)c(F)cc2F)c2ccccc12 | 950
9 | CNCCCCCCc1ccc(CC(C)NCC(O)c2cccc(Cl)c2)cc1 (centres undefined) | 850
10 | O=C(NCC1CCC(C(=O)O)CC1)c1ccc(/C=C/C(=O)N2CCc3ccccc3C2c2ccc3c(c2)OCO3)cc1 (centres undefined) | 890
11 | O=S(=O)(NC1=NCCC1)c1cccc(Nc2nc(C(F)(F)F)nc3ccccc23)c1 | 950
12 | COc1cccc2cc(C(=O)N[C@@H](CC(C)C)C(=O)N[C@H](/C=N/N3CCOC3=O)Cc3ccccc3)oc12 | 690
13 | COC(=O)c1c(C#N)c(OC)cc(O)c1CSC[C@H](Nc1nc(-c2ccc([N+](=O)[O-])cc2)cs1)C(=O)NCCN1CCCCC1 | 1060
14 | N#Cc1cccc(NC(=O)Nc2ccc3c(c2)CCN(C2CCC2)CC3)c1 | 840
15 | COc1ccc2nc3ccccc3c(NCCN3CCN(C)CC3)c2c1 | 1290
16 | CC(C)Cn1ncc2c3c(N)nc(N)nc3ccc21 | 160
17 | Cc1ccc(NC(=O)c2cccc(C#N)c2)cc1-c1ccc(C(=O)Nc2ccncc2)cc1 | 690
18 | O=C(CC1CCCC1)N(Cc1ccc(-c2ccc(CNC3Cc4ccccc4C3)cc2)cc1)CC1CCCCN1 (centres undefined) | 1060
19 | COc1cccc(CNC[C@@H](O)[C@H](Cc2ccccc2)NC(=O)c2cc(N3CCCC3=O)c3[nH]cc(C(C)C)c3c2)c1 | 530
20 | CN(C)c1ccc(NC2=NC(C)(C)N=C(N)N2)cc1 | 220
21 | CN(C)CCOc1cc(NC(=O)Nc2ccc3c(c2)CCCC3=O)ccc1I | 940
22 | CCCCCN1CCC(NC(=O)c2ccc(C(=O)Nc3ccc(C(C)C)cc3)cc2)C1 (centres undefined) | 950
23 | NCC1CCCN1Cc1ccc(-c2cccc(-c3nc4ccc(C(F)(F)F)cc4[nH]3)c2)cc1 (centres undefined) | 830
24 | COc1cc(C(C)C)ccc1C1CCN(CCCCNC(=O)c2ccc(NC(=O)c3ccc(Cl)cc3)cc2)CC1 | 450
25 | COc1ccc(Cc2cnc3nc(N)nc(N)c3c2C)cc1 | 30

Row | SMILES | IC50 [nM]
26 | O=C(NC1CCCCC1)N(Cc1cccc(-c2ccc(CNC3CCCC3)cc2)c1)C1CCN(Cc2ccccc2)CC1 | 950
27 | Cc1cc(-c2ccc(Cl)cc2)c2c(N)c(C(=O)Nc3ccc(F)cc3)sc2n1 | 820
28 | CCOC(=O)C(C(C)=O)C(c1ccccc1)C(C(C)=O)C(=O)OCC (centres undefined) | 750
29 | O=C(NCCCN1CCCC1=O)NCc1ccccc1 | 820
30 | Cc1[nH]c2c(NCc3ccc(F)cc3)nccc2c1C | 1360
31 | O=C(Nc1ccc(Cl)cc1)OCCn1nnnc1C(c1ccc(Cl)cc1)N1CCOCC1 (centres undefined) | 1180
32 | CNCCNc1nccc(N2CCc3ncnc(Nc4ccc(OCc5cccc(F)c5)c(Cl)c4)c3C2)n1 | 200
33 | CCCCn1c(=N)c(C(=O)NCc2cccnc2)cc2c(=O)n3cccc(C)c3nc21 | 740
34 | O=C(/C=C/c1ccc(Cl)c(Cl)c1)NCCCCCN1CCCN(C(=O)Nc2cc(Cl)cc(Cl)c2)CC1 | 790
35 | CN(C)CCNC(=O)c1ccc2c(c1)n(C1CCN(S(=O)(=O)c3ccc(-c4ccccc4)cc3)CC1)c(=O)n2CC1CCCCC1 | 620
36 | CN(c1cc(NC(=O)c2cccs2)ccn1)C1CCN(Cc2ccccc2)CC1 | 1020
37 | O=C(CCOc1ccccc1)NCC1CCCO1 (centres undefined) | 1000
38 | Cc1cc(=O)c(-c2ccc(Sc3ccc(Cl)cc3)cc2)c(C)[nH]1 | 970
39 | O=C(Nc1ccc(OC2CCN(Cc3ccco3)C2)c(Cl)c1)c1ccc2ncccc2c1 (centres undefined) | 1080
40 | COc1ccc(NC(=O)c2ccc(C=Cc3ccc(C(F)(F)F)cc3)cc2)cc1N1CCN(C)CC1 | 420
41 | CCCNC(=O)c1ccnc(-c2ccc(CNC3Cc4ccccc4C3)cc2)c1 | 940
42 | CN(CC(=O)N1CCN(S(=O)(=O)c2cccc(Cl)c2)CC1CN1CCCC1)c1ccc(Cl)c(Cl)c1 (centres undefined) | 1240
43 | CC(Cc1ccc(OCCCCOc2ccccc2)cc1)NCCCn1ccnc1 (centres undefined) | 170
44 | CCN(CC)CCN(Cc1ccc(-c2ccc(C(F)(F)F)cc2)cc1)C(=O)Cn1c(CCc2cccc(F)c2F)nc(=O)c2sccc21 | 900
45 | CC1CN=C(c2ccc(NC(=O)Nc3ccc(C4=NCC(C)N4)cc3)cc2)N1 (centres undefined) | 380
46 | Oc1cccc(/C=N/Nc2ccnc3cc(Cl)ccc23)c1 | 730
47 | COc1ccc(C(=O)[C@H]2C[C@@H]2CN2CC=C(c3c[nH]c4ccc(OC)nc34)CC2)cc1 | 480
48 | O=C(NCc1ccco1)c1ccc(CN2CCN(C(c3ccccc3)c3ccccc3)CC2)cc1 | 790
49 | CC(C)(C)c1ccc2nc(-c3ccc(/C=C/C(=O)NC4CCN(Cc5ccccc5)CC4)cc3)[nH]c2c1 | 590
